Several values for one entry are separate records, joined by “and”; a condition that tells them apart may be missing. Identical values can stand only once.
Legend:
Assay type in all cases: in vivo, mice
IgA = experiment: Serum level of IgA (ELISA); conditions: for Effect on serum concentrations of IgA (in words): oral
Description: (§1) […] […] The control group was the mice feeding with an equal volume of saline (0.85% of NaCl). Mice were sacrificed at day five, and both the serum and spleen cells were collected. The sera were subsequently used to measure the concentration of IgG, IgM and IgA. The spleen cells were plated onto a 100 mm diameter culture plate and incubated at 37° C. for three hours. The non-adherent cells containing T-lymphocytes, B-lymphocytes and NK cells were collected and properly diluted as described in each assay.
(§2) The mouse to be sacrificed was cervical dislocated and sterilized with 70% ethanol. The cardiac punctuation was performed first to withdraw the blood. After the haemagglutination, the blood sample was subjected to centrifugation and the serum was collect. For isolation of spleen cells, the peritoneum was opened to remove the spleen. The fresh spleen was transferred to a culture plate containing 10 ml of RPMI-1640 culture medium. The spleen was then ground over a fine mesh to release the spleen cells. The spleen cells suspending in the medium were then removed and transferred to a 50-ml conical centrifuge tube. The tube was subjected to centrifugation at 1300 rpm for 10 min. The supernatant was discarded and the pellet was re-suspended in 1 ml of cold RBC lysing buffer containing EDTA-NH4Cl. The cells were incubated at room temperature for 10 min, followed by washing the cells three times with culture medium by centrifugation. The spleen cells were plated onto a 100 mm diameter culture plate and incubated at 37° C. for three hours. The non-adherent cells containing T-lymphocytes, B-lymphocytes and NK cells were collected and properly diluted as described in each assay.
(§3) An ELISA was performed in our study to measure the immunoglobulin concentration. Briefly, the spleen cells (5×10^5 cells/ml) were cultured in a medium containing RPMI 1640 supplemented with 10% fetal bovine serum (FBS), 2 mM L-glutamine, antibiotics and 5 μg/ml lipopolysaccharide (LPS; 1 μg/10^5 cells) for 5 days. LPS is a polyclonal activator of B lymphocyte. Culture spleen cell supernatants were collected at day 3, 4 and 5. IgA, IgG and IgM concentrations were measured using a sandwich ELISA technique.
The procedure for IgA assay was similar to that for IgG assay, except that the samples were 1/10^4 diluted and standard IgA ranged from 1 μg/ml to 0.0156 μg/ml were added (100 μl/well). The secondary antibody for the assay was HRP-conjugated goat anti-mouse IgA (1:1000 diluted; Zymed Laboratory, CA).

IgM = IgM secretion by spleen cells in vitro (LPS, ELISA) after oral administration; conditions: for Dose with significant increase in IgM secretion by spleen cells: oral, after three days of in vitro culture
Description: as §1, §2, §3
The procedure for IgM assay was similar to that for IgG assay, except that the samples were 1/10^4 diluted and standard IgM ranged from 1 μg/ml to 0.0156 μg/ml were added (100 μl/well). The secondary antibody for the assay was HRP-conjugated goat anti-mouse IgM (1:1,000 diluted; heavy chain-specific; Zymed Laboratory, CA).

IFN-γ = IFN-γ secretion by Con A-stimulated spleen cells (ELISA) after oral administration; conditions: for IFN-γ secretion by spleen cell: Con A; for Dose with significantly augmented IFNγ secretion by ConA-stimulated splenic T cells: oral
Description: (§4) For the drug treatment, the animals were divided into four groups and oral administration with 1 ml of PCM, ranging from 10, 40 to 80 mg/kg/day, for four days. […] The control group was the mice feeding with an equal volume of saline (0.85% of NaCl). Mice were sacrificed at day five, and both the serum and spleen cells were collected. The sera were subsequently used to measure the concentration of IgG, IgM and IgA. The spleen cells were plated onto a 100 mm diameter culture plate and incubated at 37° C. for three hours. The non-adherent cells containing T-lymphocytes, B-lymphocytes and NK cells were collected and properly diluted as described in each assay.
as §2
(§5) For the quantitative analysis of IFN-γ and IL-10, the spleen cells (1×10^6 cells/ml) were cultured in a medium containing RPMI 1640 supplemented with 10% fetal bovine serum (FBS), 2 mM L-glutamine, antibiotics and 1 μg/ml concanavalin A (Con A) for 3 days. Con A is one of the polyclonal activators for T lymphocyte. Culture spleen cell supernatants were collected. The IFNγ and IL-10 concentrations were measured using a cytokine ELISA set (Cyto Set ELISA kit) purchased from R&D Systems (MN, USA).
(§6) Cyto Set ELISA was performed as follows: A 96-well microtiter plate (Nunc-Immuno Plate, MaxiSorp, Nunc, Denmark) was precoated with capture antibodies at 4° C. overnight. The capture antibody was a rat monoclonal antibody to mouse IL-10. The samples to be tested and standard IL-10 ranged from 500 pg/ml to 15.6 pg/ml were added (100 μl/well). The plate was then incubated at 37° C. for 20 min. At the end of incubation, the plate was washed five times, followed by adding the biotinylated goat anti IL-10 polyclonal antibody. The color was developed by incubating the plate with a HRP-conjugated streptoavidin (Zymed, CA, USA), followed by a substrate solution containing hydrogen peroxide and tetramethylbenzidine (TMB). The reaction continued for 30 min at room temperature, and was stopped by adding 100 μl of 2N of sulfuric acid. The absorbence at 450 nm in each well was read using an ELISA reader (EL311, BioTek, Winooski, Vt.), and the data was analyzed using log-logit model.
Cyto Set ELISA of IFN-γ was similar to that of IL-10, except that the capture antibody was a rat monoclonal antibody to mouse IFN-γ, and secondary antibody was biotinylated goat anti IFN-γ polyclonal antibody.
(§7) TH1-type cytokines, such as interleukin-2 (IL-2), interferon-γ (IFN-γ) induces the cellular immune response. Whereas, TH2-type cytokines, such as interleukin-4 (IL-4), interleukin-5 (IL-5), interleukin-6 (IL-6), stimulates the B lymphocyte-mediated humoral immune response. […] Spleen cells isolated from the mice treated with PCM and its purified components, such as PCM-K1, -K2, -K3 and K4, were cultured for five days in the presence of ConA. […]

IL-10 = IL-10 secretion by Con A-stimulated spleen cells (ELISA) after oral administration
Description: as §4, §2, §5, §6
as §7, with “ConA. The amount of interferon-γ (IFNγ; TH1-type cytokine) and interleukin-10 (IL-10; TH2-type cytokine) secreted by the spleen T lymphocytes was measured (Table 7.1 & Table 7.2).” for “ConA.”

[1] = oral 10 mg/kg/day for four days
[2] = oral 20 mg/kg/day for four days

Compound | Effect on serum concentrations of IgA (in words) (IgA) | Serum immunoglobulin concentration IgA (IgA; oral 5 mg/kg/day for four days) [mg/mL] | Serum immunoglobulin concentration IgA (IgA; [1]) [mg/mL] | Serum immunoglobulin concentration IgA (IgA; [2]) [mg/mL] | IgM secretion by spleen cell, incubation day 3 (IgM; oral 5 mg/kg/day for four days) | IgM secretion by spleen cell, incubation day 4 (IgM; oral 5 mg/kg/day for four days) | IgM secretion by spleen cell, incubation day 5 (IgM; oral 5 mg/kg/day for four days) | IgM secretion by spleen cell, incubation day 3 (IgM; [1]) | IgM secretion by spleen cell, incubation day 4 (IgM; [1]) | IgM secretion by spleen cell, incubation day 5 (IgM; [1]) | IgM secretion by spleen cell, incubation day 3 (IgM; [2]) | IgM secretion by spleen cell, incubation day 4 (IgM; [2]) | IgM secretion by spleen cell, incubation day 5 (IgM; [2]) | Dose with significant increase in IgM secretion by spleen cells (IgM) [mg/kg/day] | IFN-γ secretion by spleen cell (IFN-γ; oral 5 mg/kg/day for four days) [pg/mL] | IFN-γ secretion by spleen cell (IFN-γ; [1]) [pg/mL] | IFN-γ secretion by spleen cell (IFN-γ; [2]) [pg/mL] | IL-10 secretion by spleen cell (IL-10; oral 5 mg/kg/day for four days) [pg/mL] | IL-10 secretion by spleen cell (IL-10; [1]) [pg/mL] | IL-10 secretion by spleen cell (IL-10; [2]) [pg/mL] | further results
C=C(CC[C@@H](C(=O)O)[C@H]1[C@H](O)C[C@@]2(C)C3=CC[C@H]4C(C)(C)C(=O)CC[C@]4(C)C3=CC[C@]12C)C(C)C [K3] | no effect | 3.65 ± 0.26 | 3.81 ± 0.46 | 3.55 ± 0.37 | 222.42 ± 42.83 | 214.45 ± 28.51 | 277.52 ± 101.63 | 287.66 ± 44.44 | 294.30 ± 30.68 | 309.51 ± 30.88 | 372.14 ± 69.48 | 519.53 ± 52.63 | 606.44 ± 88.10 | 10 | 917.07 ± 130.41 | 449.74 ± 100.67 | 176.20 ± 45.96 | 262.09 ± 108.41 | 86.48 ± 33.26 | 98.74 ± 27.05 | Dose with significantly augmented IFNγ secretion by ConA-stimulated splenic T cells (IFN-γ; listed as PCM-K3): 5 mg/kg/day and 10 mg/kg/day
C=C(CCC(C(=O)O)C1C(O)CC2(C)C3=CCC4C(C)(CCC(O)C4(C)C)C3=CCC12C)C(C)C (stereo not drawn) [K4] | no effect | 3.33 ± 0.13 | 3.39 ± 0.25 | 3.54 ± 0.12 | 463.65 ± 76.41 | 688.17 ± 85.78 | 649.89 ± 70.09 | 514.45 ± 70.30 | 733.58 ± 95.70 | 807.32 ± 104.21 | 747.6 ± 128.42 | 746.50 ± 157.76 | 857.49 ± 92.19 | ≥ 5 | 240.45 ± 107.83 | 252.26 ± 103.76 | 292.00 ± 77.77 | 128.91 ± 45.46 | 197.39 ± 68.73 | 155.91 ± 26.16 | Dose with significantly augmented IFNγ secretion by ConA-stimulated splenic T cells (IFN-γ): 20 mg/kg/day

— patent publication US9056067B2, “Pharmaceutical composition for enhancing immunity, and extract of Poria” (Sinphar Pharmaceutical Co., Ltd., priority 2003, dated 2015)
